Assay results taken from patent publication US6872713B1, “Antiprotozoal saponins” (Janssen Pharmaceutica N.V., priority 1999, dated 2005).
Converted amounts (≈) assume the structure as drawn.

What was measured:
L. donovani [1] = experiment: In vitro antileishmanial activity in primary mouse macrophages, L. donovani; format: cell-based; conditions: Leishmania donovani, Macrophage, L. donovani (visceral)
Procedure: (§1) Methods for the in vitro growth of Leishmania organisms and screening methodology are well documented in the international literature. Testing protocols are flexible and may be adapted according to the specific objectives and the characteristics of the test compounds. Briefly, the following in vitro methodology has been used: Primary peritoneal macrophages derived from laboratory rodents or macrophage cell lines were seeded in multiwell tissue culture vessels and allowed to attach for about 24 hours. Amastigotes of the Leishmania species (obtained from target tissues of an infected donor animal or from amastigote-infected tissue cultures) or promastigotes of the Leishmania species were added at an appropriate infection ratio together with varying serially diluted concentrations of the drug or test compound. […] Treatment of uninfected control cultures was also included in order to determine a selectivity index. Reference drug treated cultures were included as well so as to determine the relative potency of the test drug. Drug activity was determined in stained preparations as the percentage reduction of the total parasite load or the number of infected macrophages compared to the untreated control cultures.

L. donovani [2] = experiment: Lowest active dose regimen in Balb-C mice, L. donovani; format: in vivo; conditions: no regimen given
From the text: (§2) Methods for in vivo maintenance of Leishmania organisms and animals models are well documented in the international literature. Balb-C mice and golden hamsters are the preferred laboratory animal species for primary isolation, maintenance and use in artificial infection models. Testing protocols are flexible and may be adapted according to the specific objectives and characteristics of the test compounds. Briefly, the following in vivo methodologies have been used:
For visceral Leishmania species: Balb-C mice or young hamsters were intravenously infected with about 10^6 to 10^7 amastigotes derived from the target organs (generally spleen) of an infected donor animal or from an in vitro culture of parasite forms. The animals were treated with the test compound at different dose levels (dose range: 0.1 to 80 mg/kg in 100% DMSO or any other acceptable vehicle), using different routes of administration and treatment schedules. Initiation of treatment was either at different times after infection (curatively), concomitant with infection (prophylactically) or before infection (residual activity). In the prophylactic study design, the first administration of the test drug is given immediately before or together with the artificial infection with the Leishmania species. In the curative study design, the first administration of the test drug is given several weeks after the artificial infection with the Leishmania species (early curative=when the first clinical signs appear; late curative=when the clinical symptoms are well established or become chronic). Drug activity was evaluated by determination of the total parasite burdens in the liver or any other relevant target tissue/organ, compared to the tissue/organ burdens in untreated control animals. The mean number of amastigotes is enumerated quantitatively or semi-quantitatively on stained impression smears or slides. The percentage reduction serves as an indication for antileishmanial activity and provides significant leads for clinically useful agents. […]

L. mexicana [3] = experiment: In vivo skin lesion model, L. mexicana (prophylactic and curative); set-up: species or system mice and hamsters; conditions: L. mexicana proph., 10 mg/kg
From the text: as §2
(§3) For cutaneous and mucocutaneous Leishmania species:Balb-C mice or young hamsters were infected intradermally or subcutaneously with about 10^6 to 10^7 amastigotes derived from the target organs (generally skin lesion) of an infected donor animal or from an in vitro culture of parasite forms. The animals were treated with the test compound at different dose levels (mg/kg in 100% DMSO or any other acceptable vehicle), using different routes of administration and treatment schedules. Initiation of treatment was either before infection (prophylactically) or at different times after infection (curatively). In the prophylactic study design, the first administration of the test drug is given immediately before or together with the artificial infection with the Leishmania species. In the curative study design, the first administration of the test drug is given several weeks after the artificial infection with the Leishmania species (early curative=when the first dermal lesions appear; late curative=when dermal lesions are well established or become chronic). Drug activity was evaluated either by determination of the severity of the lesion in the relevant target tissue/organ (primary parameter) or of the parasite burdens in the relevant target tissue/organ (secondary parameter), compared to untreated control animals. The lesion size was assessed quantitatively using the method of J. El-On. and A. D. Hamburger [Trans. Roy. Soc. Trop. Med. Hyg., 81, 734-737 (1987)]. The percentage reduction serves as an indication for antileishmanial activity and provides significant leads for clinically useful agents. The lowest active dose (LAD) is defined as the lowest dose which prevents lesions to develop, stops further evolution of the lesions or induces a clinical cure of the lesions in the primary target organ or tissue.

L. major [4] = experiment: In vivo skin lesion model, L. major (prophylactic and curative); set-up: species or system mice and hamsters; conditions: L. major proph., 10 mg/kg
From the text: as §2, §3

L. major [5] = experiment: Lowest active dose regimen in Balb-C mice, L. major; format: in vivo; conditions: L. major prophylactic; no regimen given
From the text: as §2
(§4) For cutaneous and mucocutaneous Leishmania species:Balb-C mice or young hamsters were infected intradermally or subcutaneously with about 10^6 to 10^7 amastigotes derived from the target organs (generally skin lesion) of an infected donor animal or from an in vitro culture of parasite forms. The animals were treated with the test compound at different dose levels (mg/kg in 100% DMSO or any other acceptable vehicle), using different routes of administration and treatment schedules. […] Drug activity was evaluated either by determination of the severity of the lesion in the relevant target tissue/organ (primary parameter) or of the parasite burdens in the relevant target tissue/organ (secondary parameter), compared to untreated control animals. The lesion size was assessed quantitatively using the method of J. El-On. and A. D. Hamburger [Trans. […]

L mexicana = experiment: Lowest active dose regimen in Balb-C mice, L mexicana; format: in vivo; conditions: L mexicana prophylactic; no regimen given
From the text: as §2, §4

L. infantum = experiment: In vitro antileishmanial activity in macrophages, L. infantum; format: cell-based; conditions: Leishmania infantum, Macrophage; L. infantum (visceral), primary mouse macrophages
Procedure: as §1

L. mexicana [6] = experiment: In vitro antileishmanial activity in primary mouse macrophages, L. mexicana; format: cell-based; conditions: Leishmania mexicana, Macrophage, L. mexicana (cutaneous)
Procedure: as §1

L. panamensis [7] = experiment: In vivo skin lesion model, L. panamensis (prophylactic and curative); set-up: species or system mice and hamsters; conditions: L. panamensis proph., 10 mg/kg
From the text: as §2, §3

L. major [8] = experiment: In vitro antileishmanial activity in primary mouse macrophages, L. major; format: cell-based; conditions: Leishmania major, Macrophage, L. major (cutaneous)
Procedure: as §1

L. panamensis [9] = experiment: Lowest active dose regimen in Balb-C mice, L. panamensis; format: in vivo; conditions: L. panamensis prophylactic; no regimen given
From the text: as §2, §4

Question: For `C[C@@H]1[C@H](O)[C@@H](C)/C=C/C=C/C=C/C=C/C=C/C=C/C=C/[C@H](O[C@@H]2O[C@H](C)[C@@H](O)[C@H](N)[C@@H]2O)C[C@@H]2O[C@](O)(C[C@@H](O)C[C@@H](O)[C@H](O)CC[C@@H](O)C[C@@H](O)CC(=O)O[C@H]1C)C[C@H](O)[C@H]2C(=O)O` [Ampho-B, amphothericin-B], which EC50 (L. donovani [1]) is on record?
Answer: 0.1 µg/mL (≈ 0.108 µM)

Question: What about the “Lowest active dose (LAD) regimen” value (L. donovani [2]; L. donovani curative early) of the same compound?
Answer: not effective

Question: What about the “Lowest active dose (LAD) regimen” value (L. donovani [2]; L. donovani prophylactic) of the same compound?
Answer: not effective

Question: What about the residual activity (L. donovani [2]; L. donovani) of the same compound?
Answer: not effective

Question: What about the skin lesion size (L. mexicana [3]; week 0 post infection) of the same compound?
Answer: 0 mm^2

Question: What about the skin lesion size (L. mexicana [3]; week 1 post infection) of the same compound?
Answer: 0 mm^2

Question: And the skin lesion size (L. mexicana [3]; week 2 post infection)?
Answer: 0 mm^2

Question: And the skin lesion size (L. mexicana [3]; week 3 post infection)?
Answer: 0 mm^2

Question: What about the skin lesion size (L. mexicana [3]; week 4 post infection) of the same compound?
Answer: 0 mm^2

Question: And the skin lesion size (L. mexicana [3]; week 5 post infection)?
Answer: 1 mm^2

Question: What about the skin lesion size (L. mexicana [3]; week 6 post infection) of the same compound?
Answer: 2 mm^2

Question: And the skin lesion size (L. mexicana [3]; week 7 post infection)?
Answer: 7 mm^2

Question: And the skin lesion size (L. mexicana [3]; week 8 post infection)?
Answer: 13 mm^2

Question: What about the skin lesion size (L. mexicana [3]; week 9 post infection) of the same compound?
Answer: 34 mm^2

Question: And the skin lesion size (L. mexicana [3]; week 10 post infection)?
Answer: 85 mm^2

Question: What about the skin lesion size (L. mexicana [3]; week 11 post infection) of the same compound?
Answer: 101 mm^2

Question: What about the skin lesion size (L. mexicana [3]; week 12 post infection) of the same compound?
Answer: 112 mm^2

Question: What about the skin lesion size (L. major [4]; week 0 post infection) of the same compound?
Answer: 0 mm^2

Question: And the skin lesion size (L. major [4]; week 1 post infection)?
Answer: 0 mm^2

Question: And the skin lesion size (L. major [4]; week 2 post infection)?
Answer: 1 mm^2

Question: What about the skin lesion size (L. major [4]; week 3 post infection) of the same compound?
Answer: 1 mm^2

Question: And the skin lesion size (L. major [4]; week 4 post infection)?
Answer: 12 mm^2

Question: What about the skin lesion size (L. major [4]; week 5 post infection) of the same compound?
Answer: 31 mm^2

Question: And the skin lesion size (L. major [4]; week 6 post infection)?
Answer: 41 mm^2

Question: What about the skin lesion size (L. major [4]; week 7 post infection) of the same compound?
Answer: 57 mm^2

Question: What about the skin lesion size (L. major [4]; week 8 post infection) of the same compound?
Answer: 95 mm^2

Question: And the “Lowest active dose (LAD) regimen” value (L. major [5])?
Answer: not effective

Question: What about the “Lowest active dose (LAD) regimen” value (L mexicana) of the same compound?
Answer: not effective

Question: What about the EC50 (L. infantum) of the same compound?
Answer: 0.1 µg/mL (≈ 0.108 µM)

Question: What about the EC50 (L. mexicana [6]) of the same compound?
Answer: 0.1 µg/mL (≈ 0.108 µM)

Question: What about the skin lesion size (L. panamensis [7]; week 0 post infection) of the same compound?
Answer: 0 mm^2

Question: What about the skin lesion size (L. panamensis [7]; week 1 post infection) of the same compound?
Answer: 0 mm^2

Question: What about the skin lesion size (L. panamensis [7]; week 2 post infection) of the same compound?
Answer: 0 mm^2

Question: What about the skin lesion size (L. panamensis [7]; week 3 post infection) of the same compound?
Answer: 0 mm^2

Question: And the skin lesion size (L. panamensis [7]; week 4 post infection)?
Answer: 1 mm^2

Question: And the skin lesion size (L. panamensis [7]; week 5 post infection)?
Answer: 9 mm^2

Question: And the skin lesion size (L. panamensis [7]; week 6 post infection)?
Answer: 15 mm^2

Question: What about the skin lesion size (L. panamensis [7]; week 7 post infection) of the same compound?
Answer: 30 mm^2

Question: And the skin lesion size (L. panamensis [7]; week 8 post infection)?
Answer: 30 mm^2

Question: And the skin lesion size (L. panamensis [7]; week 9 post infection)?
Answer: 42 mm^2

Question: What about the skin lesion size (L. panamensis [7]; week 10 post infection) of the same compound?
Answer: 42 mm^2

Question: What about the skin lesion size (L. panamensis [7]; week 11 post infection) of the same compound?
Answer: 43 mm^2

Question: What about the skin lesion size (L. panamensis [7]; week 12 post infection) of the same compound?
Answer: 39 mm^2

Question: And the EC50 (L. major [8])?
Answer: 0.2 µg/mL (≈ 0.216 µM)

Question: And the “Lowest active dose (LAD) regimen” value (L. panamensis [9])?
Answer: not effective

Question: How did the EC50 (L. donovani [1]) turn out when `CCC(C)n1ncn(-c2ccc(N3CCN(c4ccc(OCC5COC(Cn6cncn6)(c6ccc(Cl)cc6Cl)O5)cc4)CC3)cc2)c1=O` (centres unmarked) [itraconazole] was run?
Answer: > 12.5 µg/mL

Question: And the EC50 (L. infantum)?
Answer: > 12.5 µg/mL
